Measurements published in patent US9808511B2, “Method for treating alopecia with B-type natriuretic peptide” (IGISU Co., Ltd., priority 2011, dated 2017).
Bridges are numbered along the chain shown (N, C = ends). Where no end group is shown, it is not given here.

Experiments:
alopecia = experiment: Conclusions from case test results (all types of alopecia); type: in vivo, human; settings: external application; for Adverse events resulting from application: all cases
Protocol: (§1) The test subjects were patients with alopecia areata, androgenetic alopecia, postpartum alopecia, female pattern alopecia, alopecia pityroides, and senile alopecia. Diagnosis and treatment of these test subjects were carried out by the present inventors as physicians.
(§2) In general, in order to confirm the effect of an external medicine in an individual case, a method involving separate left and right applications is desirable. The separate left and right application method is a method in which, for example, an external medicine containing an active ingredient to be tested is applied to the left-hand side of an affected site, and an external medicine not containing the active ingredient is applied to the right-hand side, thus enabling a therapeutic effect to be confirmed. With regard to the test of the preparation of the present invention, a preparatory test was carried out in accordance with the separate left and right applications method. However, taking into consideration medical ethics, the preparatory test in accordance with the separate left and right applications method was minimized, and when a preparatory test was not carried out, a therapeutic effect was evaluated by comparison between that before application and that after application.
(§3) In order to carry out evaluation objectively, photographs before and after application of the NP preparation were recorded in all cases. Photographs of some of these cases are shown in the drawings.

androgenetic alopecia [1] = settings: androgenetic alopecia in males; cited from earlier work
androgenetic alopecia [2] = experiment: Case tests: application to hair loss sites of androgenetic alopecia patients; type: in vivo, human
Protocol: as §1
(§4) Clinical classification of alopecia was carried out in accordance with the Classification of the Japanese Dermatological Association, and evaluation of the severity of alopecia areata was carried out in accordance with the above-mentioned ‘USA Alopecia Areata Evaluation Guidelines’, the area of hair loss being classified using 6 grades of S0 to S5 and the hair loss site being classified using 3 grades of B0 to B2.
as §2, with “The separate left and right application method is a method in which, for example, an external medicine containing an active ingredient to be tested is applied to the left-hand side of an affected site, and an external medicine not containing the active ingredient is applied to the right-hand side, thus enabling a therapeutic effect to be confirmed.” left out
Prior to administration of the ANP gel, BNP gel, CNP gel, BNP ointment, and CNP ointment of the present invention, as is routine for dermatological diagnosis and treatment, the test subjects were interviewed regarding age, gender, history of disease, and family history of disease; when an allergic predisposition was suspected, a scratch test against the main allergens and an evaluation thereof were carried out.
as §3

alopecia pityroides = experiment: Case tests: application to hair loss sites of alopecia pityroides patients; type: in vivo, human; settings: previous treatment
Protocol: as §1, §2
Prior to administration of the ANP gel, BNP gel, CNP gel, BNP ointment, and CNP ointment of the present invention, as is routine for dermatological diagnosis and treatment, the test subjects were interviewed regarding age, gender, history of disease, and family history of disease; when an allergic predisposition was suspected, a scratch test against the main allergens and an evaluation thereof were carried out. In dermatological diagnosis and treatment, since there are a relatively large number of patients who have strong immunoreactivity toward a specific allergen, or a disease such as atopic dermatitis that is suspected to be related to having an allergic predisposition, in order to assist diagnosis, an interview with respect to family history and previous history of allergic disease in addition to gender and age, and a scratch test toward the main allergens, are widely carried out as simple supplemental test methods.
Table 1 to Table 23 show the results of interviews with the test subjects and the results of the scratch test together with evaluation of the diagnostic findings and symptoms of the test subjects carried out in [Example 1] above.
as §3

postpartum alopecia = experiment: Case tests: application to hair loss sites of postpartum alopecia patients; type: in vivo, human; settings: case C18
Protocol: as §1
as §2, with “application. […]” for “application.”
(§5) In order to carry out evaluation objectively, photographs before and after application of the NP preparation were recorded in all cases. […]

seborrheic alopecia = experiment: Case tests: application to hair loss sites of seborrheic alopecia patients; type: in vivo, human; settings: previous treatment
alopecia areata = experiment: Case tests: application to bald areas of alopecia areata patients; type: in vivo, human; settings: previous treatment of the test subject (history); one value per case
Protocol: as §1, §4
In general, in order to confirm the effect of an external medicine in an individual case, a method involving separate left and right applications is desirable. […] However, taking into consideration medical ethics, the preparatory test in accordance with the separate left and right applications method was minimized, and when a preparatory test was not carried out, a therapeutic effect was evaluated by comparison between that before application and that after application. […]
as §5

[3] = system: cancer chemotherapy drug-induced alopecia; experiment: Case tests: application to hair loss sites of cancer chemotherapy drug-induced alopecia patients; type: in vivo, human
female pattern alopecia = experiment: Case tests: application to thinning hair sites of female pattern alopecia patients; type: in vivo, human; settings: previous treatment
Protocol: as §1
as §2, with “application. […]” for “application.”
as §5

thin head hair = settings: applied twice a day after hair washing; cited from earlier work
[4] = case C35, previous treatment (interview)
[5] = previous treatment of the test subject (history), one value per case

## CC[C@H](C)[C@@H]1NC(=O)[C@H](CCCNC(=N)N)NC(=O)[C@H](CC(=O)O)NC(=O)[C@H](CCSC)NC(=O)[C@H](CCCCN)NC(=O)[C@H](CCCNC(=N)N)NC(=O)CNC(=O)[C@H](Cc2ccccc2)NC(=O)[C@@H](NC(=O)CNC(=O)[C@H](CO)NC(=O)CNC(=O)[C@H](CCC(N)=O)NC(=O)[C@@H](NC(=O)[C@H](CCSC)NC(=O)[C@H](CCCCN)NC(=O)[C@@H]2CCCN2C(=O)[C@@H](N)CO)C(C)C)CSSC[C@@H](C(=O)N[C@@H](CCCCN)C(=O)N[C@H](C(=O)N[C@@H](CC(C)C)C(=O)N[C@@H](CCCN=C(N)N)C(=O)N[C@@H](CCCN=C(N)N)C(=O)N[C@@H](Cc2cnc[nH]2)C(=O)O)C(C)C)NC(=O)CNC(=O)[C@H](CC(C)C)NC(=O)CNC(=O)[C@H](CO)NC(=O)[C@H](CO)NC(=O)[C@H](CO)NC(=O)[C@H](CO)NC1=O [BNP, human BNP-32]
alopecia
  Adverse events resulting from application: did not exhibit any adverse events such as local symptoms of irritation, skin atrophy, or an itching sensation

## CC[C@H](C)[C@@H]1NC(=O)[C@H](CCCNC(=N)N)NC(=O)[C@H](CC(=O)O)NC(=O)[C@H](CC(C)C)NC(=O)[C@H](CCCCN)NC(=O)[C@H](CC(C)C)NC(=O)CNC(=O)[C@H](Cc2ccccc2)NC(=O)[C@@H](NC(=O)CNC(=O)[C@H](CCCCN)NC(=O)[C@H](CO)NC(=O)[C@H](CC(C)C)NC(=O)CN)CSSC[C@@H](C(=O)O)NC(=O)CNC(=O)[C@H](CC(C)C)NC(=O)CNC(=O)[C@H](CO)NC(=O)[C@H](CCSC)NC(=O)[C@H](CO)NC(=O)CNC1=O [CNP, human CNP-22]
alopecia
  Adverse events resulting from application: did not exhibit any adverse events such as local symptoms of irritation, skin atrophy, or an itching sensation

## CC(C)(C)NC(=O)[C@H]1CC[C@H]2[C@@H]3CC[C@H]4NC(=O)C=C[C@]4(C)[C@H]3CC[C@]12C [Finasteride, finasteride]
Androgenetic alopecia [1]
  Proportion of patients improved: about ¼

## O=C(O)CCCC[C@@H]1SC[C@@H]2NC(=O)N[C@@H]21 [biotin]
Androgenetic alopecia [2]; previous treatment, cases C39, C26, B29
  Effect of conventional preparation: there had been no effect

## COC(=O)CCC[N+](C)(C)C.[Cl-] [carpronium chloride]
Alopecia pityroides; case A13 (=A6, C3, C4)
  Effect of carpronium chloride: No effect
Alopecia pityroides; case C30
  Effect of carpronium chloride: No effect
Alopecia pityroides; case C33
  Effect of carpronium chloride: No effect
Postpartum alopecia; previous treatment
  Effect of carpronium chloride: No effect
Postpartum alopecia; previous treatment for 5 months
  Effect of conventional preparation: thinning hair on the crown had not improved
Seborrheic alopecia; case B21 (=A8, B8)
  Effect of carpronium chloride: No effect
Alopecia areata
  Effect of carpronium chloride: No effect
[3]; [4]
  Effect of carpronium chloride: No effect
[3]; case C35, previous application for 6 months
  Effect of conventional preparation: There had been no effect
Female pattern alopecia; case C19
  Effect of carpronium chloride: No effect
Female pattern alopecia; cases B20, C19
  Effect of conventional preparation: there had been no effect

## COc1ccc2cc1Oc1ccc(cc1)C[C@H]1c3c(cc4c(c3Oc3cc5c(cc3OC)CCN(C)[C@@H]5C2)OCO4)CCN1C [cepharanthin]
Alopecia areata
  Effect of cepharanthin: there had been no therapeutic effect
[3]; [4]
  Effect of cepharanthin: No effect

## CC1(C)[C@@H](O)CC[C@]2(C)[C@H]3C(=O)C=C4[C@@H]5C[C@@](C)(C(=O)O)CC[C@]5(C)CC[C@@]4(C)[C@]3(C)CC[C@@H]12 [glycyrrhetinic acid]
Seborrheic alopecia; case A12 (=A9, B11)
  Effect of glycyrrhetinic acid: No effect
Seborrheic alopecia; case B22 (=A9, B11)
  Effect of glycyrrhetinic acid: No effect
Androgenetic alopecia [2]; [5]
  Effect of glycyrrhetinic acid: there had been no effect

## Nc1cc(N2CCCCC2)nc(N)[n+]1[O-] [minoxidil]
Alopecia pityroides; case B28
  Effect of minoxidil: No effect
Seborrheic alopecia; case A12 (=A9, B11)
  Effect of minoxidil: No effect
Seborrheic alopecia; case B22 (=A9, B11)
  Effect of minoxidil: No effect
Androgenetic alopecia [2]; case B9, previous treatment
  Effect of minoxidil: No effect
Androgenetic alopecia [2]; case C16, previous treatment
  Effect of minoxidil: No effect
Androgenetic alopecia [2]; [5]
  Effect of minoxidil: No effect

## human ANP(1-28) (SLRRSSCFGGRMDRIGAQSGLGCNSFRY; disulfide 7-23; listed as Homo sapiens)
Thin head hair
  Hair growth: downy hair-like hair growth was observed on the frontal region with 1 week of ANP administration
alopecia; agent containing the peptide as an active ingredient
  Therapeutic effect, conclusions from case test results: effective only for alopecia in which there was no erythema, scale, seborrheic desquamation, etc. on the scalp
